Here are results for 15 compounds from patent US10278942B2 (PELOTON THERAPEUTICS, INC., priority 2015, dated 2019).

Data set [1] has as its system rats with hypoxia/semaxanib induced pulmonary arterial hypertension. As to the kind of experiment: Effect of HIF-2α inhibition in a model of active PAH (Example 37, interventional). An excerpt:
Rats were kept in hypoxic conditions for the duration of this study. On the fourteenth day of test article dosing, the rats were anesthetized with ketamine/xylazine for terminal monitoring of pulmonary and systemic arterial pressures along with heart rate. […]

Data set [2] has the same test system. As to the kind of experiment: Prevention of PAH by a HIF-2α inhibitor (Example 36). The procedure: Two rats not exposed to either semaxanib or hypoxia served as hypertrophic sentinels for this study. Rats received a single injection of semaxanib (200 mg/kg, s.c.) on the same day as initiation of test article dosing and introduction to the hypoxic chamber. Rats were kept in hypoxic conditions for the duration of this study. On the twenty-eighth day of test article dosing, the rats were anesthetized with ketamine/xylazine for terminal monitoring of pulmonary and systemic arterial pressures along with heart rate. […]

For data set [3], the system named is 786-O cells. As to the kind of experiment: VEGF ELISA Assay. The data set is classed as cell-based. The note with it: Homo sapiens, 786-0. The procedure:
Each concentration was plated in duplicate. About 20 hours later, medium was removed by suction and each well was supplied with 180 μL of growth medium. About 20 μl freshly-made 10× compound stocks were added to each well. […] The EC50 was calculated by GraphPad Prism using the dose-response-inhibition (four parameter) equation. The cell-seeded plate was then subjected to CellTiter-Glo luminescence cell viability assay (Promega) by adding 50 μL of Celltiter Glo reagent into each well and shaking the plate for 8 minutes at 550 rpm (Thermomixer R, Eppendorf) then the luminescence signal immediately read in a plate reader (3 second delay, 0.5 second/well integration time, Synergy 2 multi Detection Microplate reader).

Data set [4] deals with T1, HIF-2α HIS TAG-PASB Domain (Homo sapiens, UniProt Q99814).
T1 construct: 100 nM HIF-2α HIS TAG-PASB Domain
T1 sequence (Q99814 240-350 limits assumed): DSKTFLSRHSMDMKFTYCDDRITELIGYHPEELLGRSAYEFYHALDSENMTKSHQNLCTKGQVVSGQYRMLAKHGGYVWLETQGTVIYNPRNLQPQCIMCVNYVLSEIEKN
As to the kind of experiment: HIF-2α Scintillation Proximity Assay (SPA). The data set is classed as binding. The note with it: for pIC50: read-out: Scintillation Proximity Assay IC50. Summed up:
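IC50 values rest on percent inhibition, where the sample signal is scaled between high and low controls. Wells contain about 100 μL: compound dispensed as 2 μL of DMSO solution, 88 μL protein-probe mix and 10 μL of beads.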

Data set [5] has as its system 786-O-Hif-Luc cells. As to the kind of experiment: Luciferase Assay (HIF responsive elements reporter). The note with it: read-out: Mean Luciferase EC50 (nM), 786-O-Hif-Luc cells.
Description: A pool of infected cells were then selected against 2 μg/mL of puromycin (P8833, Sigma) for 10 days followed by limited dilution to select single clones. […] Each concentration was tested in triplicate. After about 24 hours, luciferase activity was determined using ONE-Glo Luciferase Assay Reagent (E6110, Promega) following the manufacturer's recommended procedure. EC50 were calculated using Dotmatics software.
Setting [6] is: active PAH, 60/day bid oral Days 15 to 28, Mean ± SEM.
The mark [7] stands for this setting: active PAH, Group 4, 60 mg/kg/day 14 days.
Where [8] appears, read: prevention, 60/day bid oral 28 days, Mean ± SEM.
Where [9] appears, read: prevention, Group 4, 30 mg/kg BID.

pEC50, pIC50: −log10 of the molar value. Read-outs that look alike come from different tables or passages of the source. Where only a bound is given, the exact number is not on record here.

Consider `CCCc1nn(C)c2c(=O)[nH]c(-c3cc(S(=O)(=O)N4CCN(C)CC4)ccc3OCC)nc12` [sildenafil], for which, in data set [1] (setting [6]), the “Heart Wt” value stood at 1.25 g, the “LV Wt” value is 0.75 g, the LW/BW is recorded as 6.68 and the “Lung Wt” value is recorded as 2.36 g. Further, in data set [1] (setting [6]), the MAP is on record as 93 mm Hg, the “Mean PAP” value came out at 36 mm Hg, the “RV Wt” value came to 0.35 g and the RV/BW turned out to be 0.98. In data set [1] (setting [6]), the “RV/LV + S” value worked out at 0.46 and the “Systolic PAP” value was found to be 56 mm Hg. Moreover, in data set [1] (setting [7]), the “Group mean scores for smooth muscle hypertrophy” value was 2.6, the “mean percentages of completely muscularized arterioles” value was 47.2%, the “mean percentages of non-muscularized arterioles” value stood at 1.1% and the “mean percentages of partially muscularized arterioles” value is 51.7%. Also, in data set [1] (active PAH, compared to vehicle), the pulmonary hypertrophy result is on record as “reductions in pulmonary hypertrophy”. In addition, the “reduction in RV/BW ratio” value in data set [1] (active PAH, sildenafil 30 mg/kg twice daily, p<0.05) is recorded as 21%. The “heart rate compared to vehicle” value in data set [1] (rat, in vivo) was “No substantive differences”. For the same compound, in data set [1] (rat, in vivo, po), the “Body Weight” value was 0.35 kg and the HR amounted to 298 bpm. Also, the “RV/LV + S” value in data set [2] (Fulton's Index, prevention, 60/day bid oral 28 days, Mean ± SEM) was found to be 0.52 ± 0.04. Also, in data set [2] (setting [8]), the “Heart Wt” value is listed as 1.23 ± 0.03 g, the “LV Wt” value is listed as 0.71 ± 0.02 g, the “Lung Wt” value came to 2.39 ± 0.07 g and the MAP worked out at 92 ± 2 mm Hg. Besides, in data set [2] (setting [8]), the “Mean PAP” value is 38 ± 3 mm Hg, the “RV Wt” value is 0.36 ± 0.03 g, the RV/BW was found to be 1.12 ± 0.10 and the “Systolic PAP” value was 55 ± 5 mm Hg. Moreover, in data set [2] (setting [9]), the “mean percentages of completely muscularized arterioles” value was determined as 58.7%, the “mean percentages of non-muscularized arterioles” value came out at 1.1% and the “mean percentages of partially muscularized arterioles” value is 40.2%. Also, the “Group mean scores for smooth muscle hypertrophy” value in data set [2] (prevention, Group 4, 30 mg/kg BID, lung histopathology) is on record as 3.4. Further, the “pulmonary arteriolar smooth muscle hypertrophy compared to vehicle” value in data set [2] (prevention, histopathology evaluation and arteriole counts) was “slight decrease”. The “protection versus vehicle (systolic pulmonary arterial pressure)” value in data set [2] (prevention, sildenafil group) was “showed protection versus vehicle”. Besides, the “heart rate compared to vehicle” value in data set [2] (rat, in vivo) is “No notable differences”. In data set [2] (rat, in vivo, po), this compound registered an HR of 289 ± 11 bpm.

`CS(=O)(=O)c1ccc(O[C@H]2C[C@@H](F)C2)c2c1[C@H](O)C(F)(F)[C@@H]2F` [Compound 740]: the pEC50 in data set [3] is 6.60 to 7.30. Also, in data set [4], the pIC50 is greater than 7.30. The EC50 in data set [5] was 50 to 249 nM.

Consider `O=S(=O)(CF)c1ccc(O[C@H]2C[C@H](F)C2)c2c1[C@H](O)[C@H](F)[C@@H]2F` [Compound 743], for which the pEC50 in data set [3] was 6.60 to 7.30. Besides, the pIC50 in data set [4] is greater than 7.30. The EC50 in data set [5] was less than 50 nM.

In the case of `O=S(=O)(c1ccc(Oc2ccc(F)c(F)c2)c2c1[C@H](O)C(F)(F)C2)C(F)(F)F` [Compound 233], in data set [3], the pEC50 was greater than 7.30. The pIC50 in data set [4] is greater than 7.30. Further, in data set [5], the EC50 was less than 50 nM.

For `N#CC1(COc2ccc(S(=O)(=O)C(F)(F)F)c3c2CC(F)(F)C3O)CC1` (stereo not drawn) [Compound 620], the pEC50 in data set [3] is 6.60 to 7.30. For the same compound, the pIC50 in data set [4] is 6.60 to 7.30. The EC50 in data set [5] is 50 to 249 nM.

For the compound `CC1(O)c2c(ccc(Oc3cc(F)cc(F)c3)c2C#N)S(=O)(=O)C1(F)F` (stereo not drawn) [Compound 446], the pEC50 in data set [3] was greater than 7.30. In addition, the pIC50 in data set [4] was greater than 7.30. Further, the EC50 in data set [5] was less than 50 nM.

In the case of `CC(C)Oc1ccc(S(=O)(=O)C(F)(F)F)c2c1CC(F)(F)[C@H]2O` [Compound 654], the pEC50 in data set [3] is greater than 7.30. Also, the pIC50 in data set [4] was greater than 7.30. Besides, in data set [5], the EC50 was less than 50 nM.

In the case of `O=S(=O)(c1ccc(Oc2cc(F)cc(Cl)c2)c2c1C(O)C(F)(F)C2)C(F)F` (stereo not drawn) [Compound 8], the pEC50 in data set [3] was greater than 7.30. The compound also registered an IC50 in data set [4] (Scintillation Proximity Assay IC50 (nM)) of less than 50 nM. For the same compound, the EC50 in data set [5] is less than 50 nM.

Consider `NC1c2c(ccc(Oc3cc(F)cc(F)c3)c2C(F)F)S(=O)(=O)C1(F)F` (stereo not drawn) [Compound 365], for which the pEC50 in data set [3] is 6.60 to 7.30. Besides, in data set [4], the negative logarithm of the IC50 (pIC50) was greater than 7.30. Moreover, the EC50 in data set [5] was 50 to 249 nM.

Take `CC(C)(C#N)COc1ccc(S(=O)(=O)C(F)(F)F)c2c1CC(F)(F)C2O` (stereo not drawn) [Compound 610]: in data set [3], the pEC50 is 6.60 to 7.30. The pIC50 in data set [4] was greater than 7.30. Besides, the EC50 in data set [5] fell in the range of 50 to 249 nM.

For `CCCCOc1ccc(S(=O)(=O)C(F)(F)F)c2c1CC(F)(F)[C@H]2O` [Compound 710], in data set [3], the pEC50 is 6.60 to 7.30. The pIC50 in data set [4] is greater than 7.30. The EC50 in data set [5] is less than 50 nM.

On to `O=S(=O)(c1ccc(Oc2cncc(Cl)c2)c2c1[C@H](O)C(F)(F)C2)C(F)(F)F` [Compound 186], for which the pEC50 in data set [3] was greater than 7.30. The pIC50 in data set [4] was greater than 7.30. The EC50 in data set [5] is less than 50 nM.

For `O=S(=O)(c1ccc(OC2CCCCC2)c2c1C(O)C(F)(F)C2)C(F)(F)F` (stereo not drawn) [Compound 617], the pEC50 in data set [3] is greater than 7.30. Further, in data set [4], the pIC50 is greater than 7.30. In data set [5], the EC50 was less than 50 nM.

As to `N#Cc1cc(F)cc(Oc2ccc(S(=N)(=O)C(F)(F)F)c3c2CC(F)(F)[C@H]3O)c1` (stereo partly drawn) [Compound 305], the pEC50 in data set [3] is greater than 7.30. In addition, in data set [4], the pIC50 was greater than 7.30. Moreover, the EC50 in data set [5] is less than 50 nM.

With `N#Cc1cc(Oc2ccc(S(=O)(=O)C(F)(F)F)c3c2CC(F)(F)[C@H]3O)ccc1F` [Compound 228], the pEC50 in data set [3] is greater than 7.30. In data set [4], the pIC50 is greater than 7.30. Moreover, in data set [5], the EC50 was less than 50 nM.
